What was measured:
[1] = system: Pseudomonas aeruginosa small colony variant; assay type: in vivo; conditions: Baseline
Method: (§1) Patients were randomized and stratified by smoking status (former vs current smokers). The double-blind placebo-controlled treatment period was 28 days (Day 1 to Day 28) and included visits on Days 1, 14 and 28. Eligible patients were randomized in a 2:1 ratio to receive 300 mg b.i.d. of Compound A or matching placebo for 28 consecutive days. Of note, the first 4 patients enrolled randomized in this study received 450 mg b.i.d. of Compound A or placebo, prior to an amendment reducing the dose and thereafter the dose was reduced to 300 mg b.i.d. of Compound A. The single-blind placebo-controlled follow-up period was 28 days. The follow-up period included a visit on Day 29 for key primary and secondary objective efficacy assessments, weekly follow-up contact via telephone, and an End-of-Study (EOS) visit on Day 56.
Spontaneous sputum was collected from patients and used to quantify colony forming units (CFUs) as a potential efficacy marker. […] In the event of bacterial growth for one or more of the above five pathogens, then the test result was reported, including the quantitative growth. […]
A decrease in airway bacterial colonization as detected in the sputum is considered improvement. […] Within each treatment group, the percentage was calculated as number of patients who were colonized with bacteria divided with total number of patients who produced a sputum sample at that time point.

CYP3A4/5 = experiment: Time dependent inhibition and induction of CYP3A4/5; assay type: in vitro ADME
[2] = Pharmacokinetics of Compound A (half-life, trough/AUC relation); assay type: in vivo
OATP1B3 = OATP1B3 (Homo sapiens (Human), UniProt Q9NPD5); experiment: in vitro inhibition of OATP1B3; assay type: in vitro ADME
OATP1B3, sequence (Q9NPD5 whole entry): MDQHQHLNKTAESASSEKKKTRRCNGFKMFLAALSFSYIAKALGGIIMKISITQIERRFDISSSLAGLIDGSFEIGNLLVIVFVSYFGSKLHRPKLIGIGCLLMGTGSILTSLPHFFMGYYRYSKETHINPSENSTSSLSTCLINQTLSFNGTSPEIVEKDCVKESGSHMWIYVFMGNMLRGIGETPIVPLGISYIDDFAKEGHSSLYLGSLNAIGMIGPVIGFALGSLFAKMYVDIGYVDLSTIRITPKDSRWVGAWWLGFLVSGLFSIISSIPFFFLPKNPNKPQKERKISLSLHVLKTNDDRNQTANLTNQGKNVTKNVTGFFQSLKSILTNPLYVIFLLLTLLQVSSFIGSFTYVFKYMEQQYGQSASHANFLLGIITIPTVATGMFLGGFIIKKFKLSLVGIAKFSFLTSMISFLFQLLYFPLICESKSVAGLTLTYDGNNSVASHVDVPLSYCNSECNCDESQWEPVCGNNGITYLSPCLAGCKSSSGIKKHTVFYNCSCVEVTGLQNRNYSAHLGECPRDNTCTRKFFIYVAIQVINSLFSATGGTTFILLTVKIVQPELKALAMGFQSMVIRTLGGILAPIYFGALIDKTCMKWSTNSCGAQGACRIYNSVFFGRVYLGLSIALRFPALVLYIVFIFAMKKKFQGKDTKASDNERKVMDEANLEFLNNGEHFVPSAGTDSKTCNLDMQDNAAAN

[3] = system: Any Pathogen (Haemophilus parainfluenza, Haemophilus influenza, Pseudomonas aeruginosa, Moraxella, Streptococcus pneumonia) in sputum; experiment: Phase II study in COPD patients: sputum microbiology, any pathogen; assay type: in vivo; conditions: for patients colonized, n (%) / patients with a positive culture, n (%): Any Pathogen; for patients colonized, n (%): all patients in sputum analysis; for patients with a positive culture, n (%): only subjects with a pathogen at baseline; for percent of patients who cleared colonization: patients with culture positive sputum at Baseline
Method: A double-blinded, randomized, placebo-controlled, non-confirmatory, and multi-center, fixed-dose study of Compound A in COPD patients was conducted to assess efficacy, safety, tolerability, pharmacokinetics (PK), and pharmacodynamics (PD). Patients were randomized and stratified by smoking status (former vs current smokers). The double-blind placebo-controlled treatment period was 28 days (Day 1 to Day 28) and included visits on Days 1, 14 and 28. Eligible patients were randomized in a 2:1 ratio to receive 300 mg b.i.d. of Compound A or matching placebo for 28 consecutive days. Of note, the first 4 patients enrolled randomized in this study received 450 mg b.i.d. of Compound A or placebo, prior to an amendment reducing the dose and thereafter the dose was reduced to 300 mg b.i.d. of Compound A. The single-blind placebo-controlled follow-up period was 28 days. The follow-up period included a visit on Day 29 for key primary and secondary objective efficacy assessments, weekly follow-up contact via telephone, and an End-of-Study (EOS) visit on Day 56. Number of patients (planned and analyzed): Ninety two (92) patients were randomized into the study. The majority of the patients (N=78, 84.8%) completed the study as planned. A total of 14 patients discontinued the study (N=2 from placebo group and N=12 from Compound A group). The reasons for discontinuations include adverse events, protocol deviations (failure to meet inclusion/exclusion at Baseline), patient decision, abnormal laboratory values (positive drug screen) and administrative problems (patient unable to return to site for visits).
(§2) Spontaneous sputum was collected from patients and used to quantify colony forming units (CFUs) as a potential efficacy marker. The collected sputum samples were cultured for the following specific bacteria: Haemophilus parainfluenza, Haemophilus influenza, Pseudomonas aeruginosa, Moraxella, and Streptococcus pneumonia. In the event of bacterial growth for one or more of the above five pathogens, then the test result was reported, including the quantitative growth. In order to be included in the sputum analysis, a patient must have provided a sufficient sputum sample at baseline and at least one other visit (Day 14, Day 29 or EOS).
(§3) A decrease in airway bacterial colonization as detected in the sputum is considered improvement. In Table 4, the frequency (n, %) of patients was reported by treatment with Compound A and type of bacteria. Within each treatment group, the percentage was calculated as number of patients who were colonized with bacteria divided with total number of patients who produced a sputum sample at that time point.
For the treatment effect a summary table, the frequency (n, %) of patients with a positive culture was reported by each treatment. Only patients with a positive culture at baseline are included in this analysis. Percentage was calculated as number of patients who are colonized (i.e., have at least one culture resulted) divided with total number of patients who produced a sputum sample at each visit, by treatment.

Haemophilus influenzae = experiment: Phase II study in COPD patients: sputum microbiology, Haemophilus influenzae; assay type: in vivo
Method: as §1, §2, §3

OAT1/3 = experiment: in vitro inhibition of OAT1/3; assay type: in vitro ADME
UGT1A1 = UGT1A1 (Homo sapiens (Human), UniProt P22309); experiment: in vitro inhibition of UGT1A1; assay type: in vitro ADME
UGT1A1, sequence (P22309 26-533): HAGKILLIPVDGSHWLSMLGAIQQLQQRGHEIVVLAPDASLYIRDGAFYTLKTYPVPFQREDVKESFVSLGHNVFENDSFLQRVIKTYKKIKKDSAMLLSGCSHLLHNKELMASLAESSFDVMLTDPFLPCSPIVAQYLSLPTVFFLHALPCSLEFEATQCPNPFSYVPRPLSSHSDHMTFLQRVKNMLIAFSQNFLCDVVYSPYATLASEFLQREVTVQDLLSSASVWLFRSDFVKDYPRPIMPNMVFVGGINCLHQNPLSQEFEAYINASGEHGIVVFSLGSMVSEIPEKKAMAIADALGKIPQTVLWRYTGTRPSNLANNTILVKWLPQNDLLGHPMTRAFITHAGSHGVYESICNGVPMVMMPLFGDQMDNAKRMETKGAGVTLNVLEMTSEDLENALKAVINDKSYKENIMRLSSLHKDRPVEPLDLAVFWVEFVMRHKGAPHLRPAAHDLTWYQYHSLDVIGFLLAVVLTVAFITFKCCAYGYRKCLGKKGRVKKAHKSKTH

SMILES: COc1nc(C(=O)NC[C@](C)(O)C(F)(F)F)c(N)cc1C(F)(F)F (single isomer, unassigned) [Example 5]
- patients colonized, n (%) [1]: 1 (2.2) n (%)
- effect on CYP3A4/5 (CYP3A4/5): time dependent inhibitor and inducer
- half-life ([2]; in vivo): 600 to 960 min
- trough concentration (Cmin,ss) corresponding to AUC0-24 h,ss of 91,700 ng*h/ml ([2]; regression of Cmin,ss against AUC0-24 h,ss): 3000 ng/mL
- inhibition of OATP1B3 (OATP1B3): Weak in vitro inhibition
- patients colonized, n (%) ([3]; Baseline): 26 (57.8) n (%)
- bacterial colonization, percent of patients ([3]; Baseline, sputum analysis set): 58%
- patients colonized, n (%) ([3]; D14): 23 (53.5) n (%)
- patients with a positive culture, n (%) ([3]; D14): 19 (76.0) n (%)
- patients colonized, n (%) ([3]; D29): 23 (54.8) n (%)
- patients with a positive culture, n (%) ([3]; D29): 18 (75.0) n (%)
- percent of patients who cleared colonization ([3]; Day 29, placebo 15%): 25%
- percent of patients colonized ([3]; Day 29, sputum analysis set, placebo 70%): 55%
- patients colonized, n (%) ([3]; EOS): 17 (40.5) n (%)
- patients with a positive culture, n (%) ([3]; EOS): 14 (58.3) n (%)
- percent of patients who cleared colonization ([3]; EOS, placebo 23%): 42%
- percent of patients colonized ([3]; EOS, sputum analysis set, placebo 74%): 41%
- patients colonized, n (%) (Haemophilus influenzae; Baseline): 25 (55.6) n (%)
- patients colonized, n (%) (Haemophilus influenzae; D14): 20 (46.5) n (%)
- patients colonized, n (%) (Haemophilus influenzae; D29): 22 (52.4) n (%)
- patients colonized, n (%) (Haemophilus influenzae; EOS): 16 (38.1) n (%)
- inhibition of OAT1/3 (OAT1/3): Weak in vitro inhibition
- inhibition of UGT1A1 (UGT1A1): Weak in vitro inhibition
